Results as given in US12319643B2, “Ionizable compounds and compositions and uses thereof” (Nitto Denko Corporation, priority 2015, dated 2025).

Key:
[1] = pKa (Table 9, lipid formulations for siRNA); format: physicochemical; conditions: only or first value of the cell
[2] = Serum stability of nanoparticle formulations, t(½) in human serum at 37 C; format: in vitro ADME; conditions: Table 10, nanoparticles Ionizable compound/DOPE/Cholesterol/DMPE-PEG 50/28/21/1 mol %
Method: (§1) Example 39: Formulations were Prepared for Encapsulating a Small Interfering Nucleic Acid Agents (siRNA)
(§2) Lipid nanoparticle formulations were prepared with the following compositions: […]
(§3) (Ionizable compound/DOPE/Cholesterol/DMPE-PEG) mol % • 50/28/21/1.
The formulations were capable of encapsulating the siRNA, and retaining stability in human serum. […]

GFP = assay: EC50 of nanoparticle formulations, GFP siRNA; format: cell-based; conditions: nanoparticles Ionizable compound/DOPE/Cholesterol/DMPE-PEG 50/28/21/1 mol %
Method: as §1, §2, §3
The formulations were capable of encapsulating the siRNA, and retaining stability in human serum.

[3] = Encapsulation efficiency for siRNA of lipid (nanoparticle) formulations; format: physicochemical; conditions: Table 8: nanoparticles Ionizable compound/DOPE/DOPC/Cholesterol/DMPE-PEG 50/28/0/21/1, 50/28/0/20/2 or 26/21/21/31/1 mol %
Method: (§4) Example 38: Formulations were Prepared for Encapsulating a Small Interfering Nucleic Acid Agents (siRNA)
as §2

[4] = Particle size Z (ave) of siRNA lipid nanoparticle formulations; format: physicochemical; conditions: Table 8: nanoparticles Ionizable compound/DOPE/DOPC/Cholesterol/DMPE-PEG 50/28/0/21/1, 50/28/0/20/2 or 26/21/21/31/1 mol %
Method: as §4, §2

Row | Compound | pKa [1] | t(½) (hr) human serum 37 C. [2] [h] | EC50 (GFP) [nM] | EE* (%) Encapsulation efficiency for siRNA [3] [%] | Z (ave) nm [4] [nm]
1 | CCCCCCCCCCCCCC(=O)OCCN(CCOC(=O)CCCCCCCCCCCCC)C(=O)CN1C[C@H](O)[C@@H](O)C1 [Compound A4, ((2-((3S,4S)-3,4-dihydroxypyrrolidin-1-yl)acetyl)azanediyl)bis(ethane-2,1-diyl) ditetradecanoate] | 5.8 | – | – | – | –
2 | CCCCC/C=C\C/C=C\CCCCCCCC(=O)OCCN(CCOC(=O)CCCCCCC/C=C\C/C=C\CCCCC)C(=O)CN1C[C@@H](O)[C@H](O)C1 [Compound A5, ((2-((3R,4R)-3,4-dihydroxypyrrolidin-1-yl)acetyl)azanediyl)bis(ethane-2,1-diyl) (9Z,9′Z,12Z,12′Z)-bis(octadeca-9,12-dienoate)] | 6.1 | >50 | 6.9 | – | –
3 | CCCCC/C=C\C/C=C\CCCCCCCC(=O)OCCN(CCOC(=O)CCCCCCC/C=C\C/C=C\CCCCC)C(=O)CN1C[C@@H](O)[C@@H](O)C1 [Compound A6, ((2-((3S,4R)-3,4-dihydroxypyrrolidin-1-yl)acetyl)azanediyl)bis(ethane-2,1-diyl) (9Z,9′Z,12Z,12′Z)-bis(octadeca-9,12-dienoate)] | 6.3 | >50 | 11 | 96 | 121
4 | CCCCC/C=C\C/C=C\CCCCCCCC(=O)OCCN(CCOC(=O)CCCCCCC/C=C\C/C=C\CCCCC)C(=O)OCCN(C)C [Compound A7, (((2-(dimethylamino)ethoxy)carbonyl)azanediyl)bis(ethane-2,1-diyl) (9Z,9′Z,12Z,12′Z)-bis(octadeca-9,12-dienoate)] | 7.6 | >50 | 35 | – | –
5 | CCCCC/C=C\C/C=C\CCCCCCCC(=O)OCCN(CCOC(=O)CCCCCCC/C=C\C/C=C\CCCCC)C(=O)OCC[N+](C)(C)C [Compound A8, 2-((bis(2-(((9Z,12Z)-octadeca-9,12-dienoyl)oxy)ethyl)carbamoyl)oxy)-N,N,N-trimethylethan-1-aminium] | – | >50 | – | – | –
6 | CCCCCCCCCCCCCC(=O)OCCN(CCOC(=O)CCCCCCCCCCCCC)C(=O)CN1CC(CO)C1 [Compound A9, ((2-(3-(hydroxymethyl)azetidin-1-yl)acetyl)azanediyl)bis(ethane-2,1-diyl) ditetradecanoate] | 7.4 | – | 31 | 95 | 97
7 | CCCCC/C=C\C/C=C\CCCCCCCC(=O)OCCN(CCOC(=O)CCCCCCC/C=C\C/C=C\CCCCC)C(=O)CN1CCN(CCCO)CC1 [Compound AA] | 7.4 | – | 22 | 90 | 120
8 | CCCCC/C=C\C/C=C\CCCCCCCC(=O)OCCN(CCOC(=O)CCCCCCC/C=C\C/C=C\CCCCC)C(=O)CN1CCN(CCO)CC1 [Compound AB, ((2-(4-(2-hydroxyethyl)piperazin-1-yl)acetyl)azanediyl)bis(ethane-2,1-diyl) (9Z,9′Z,12Z,12′Z)-bis(octadeca-9,12-dienoate)] | 6.9 | >50 | 7.4 | – | –
9 | CCCCCCCCCCCCCC(=O)OCCN(CCOC(=O)CCCCCCCCCCCCC)C(=O)CCCC(=O)O [Compound B8] | 4.3 | >50 | – | – | –
10 | CCCC/C=C\C/C=C\CCCCCCCCOC(=O)CC(CC(=O)OCCCCCCCC/C=C\C/C=C\CCCCC)NC(=O)C[N+](C)(C)C (centres unmarked) [Compound C2, 2-((1-(((9Z,12Z)-heptadeca-9,12-dien-1-yl)oxy)-5-(((9Z,12Z)-octadeca-9,12-dien-1-yl)oxy)-1,5-dioxopentan-3-yl)amino)-N,N,N-trimethyl-2-oxoethan-1-aminium] | – | – | 33 | 95 | 111
11 | CCCC/C=C\C/C=C\CCCCCCCCOC(=O)CC(CC(=O)OCCCCCCCC/C=C\C/C=C\CCCCC)NC(=O)CN(C)C (centres unmarked) [Compound C3, 1-((9Z,12Z)-heptadeca-9,12-dien-1-yl) 5-((9Z,12Z)-octadeca-9,12-dien-1-yl) 3-(2-(dimethylamino)acetamido)pentanedioate] | 6.9 | – | – | – | –
12 | CCCCC/C=C\C/C=C\CCCCCCCCOC(=O)[C@H](CNC(=O)C[N+](C)(C)C)NC(=O)CCCCCCC/C=C\C/C=C\CCCCC [Compound C24, N,N,N-trimethyl-2-(((S)-3-(((9Z,12Z)-octadeca-9,12-dien-1-yl)oxy)-2-((9Z,12Z)-octadeca-9,12-dienamido)-3-oxopropyl)amino)-2-oxoethan-1l-aminium] | – | >50 | 92 | 98 | 127
13 | CCCCC/C=C\C/C=C\CCCCCCCCOC(=O)[C@H](CNC(=O)CN(C)C)NC(=O)CCCCCCC/C=C\C/C=C\CCCCC [Compound C25, (9Z,12Z)-octadeca-9,12-dien-1-yl (S)-3-(2-(dimethylamino)acetamido)-2-((9Z,12Z)-octadeca-9,12-dienamido)propanoate] | – | >50 | – | – | –
14 | CCCCC/C=C\C/C=C\CCCCCCCCOC(=O)CC(CC(=O)OCCCCCCCC/C=C\C/C=C\CCCCC)NC(=O)CN1CCN(CCO)CC1 [Compound CA, di((9Z,12Z)-octadeca-9,12-dien-1-yl) 3-(2-(4-(2-hydroxyethyl)piperazin-1-yl)acetamido)pentanedioate] | – | – | < 50 | – | –
15 | CCCCC/C=C\C/C=C\CCCCCCCCOC(=O)CC(CC(=O)OCCCCCCCC/C=C\C/C=C\CCCCC)NC(=O)SCCN(C)C [Compound DD, di((9Z,12Z)-octadeca-9,12-dien-1-yl) 3-((((2-(dimethylamino)ethyl)thio)carbonyl)amino)pentanedioate] | 5.1 | >50 | – | 92 | 137
16 | CCCCC/C=C\C/C=C\CCCCCCCCOC(=O)CC(CC(=O)OCCCCCCCC/C=C\C/C=C\CCCCC)NC(=O)OCCN(C)C [Compound E4, di((9Z,12Z)-octadeca-9,12-dien-1-yl) 3-(((2-(dimethylamino)ethoxy)carbonyl)amino)pentanedioate] | – | >50 | 2.7 | 94 | 131
17 | CCCCC/C=C\C/C=C\CCCCCCCCOC(=O)[C@@H]1C[C@@H](NC(=O)CCN(C)C)CN1C(=O)CCCCCCC/C=C\C/C=C\CCCCC [Compound E37, (9Z,12Z)-octadeca-9,12-dien-1-yl (2S,4R)-4-(3-(dimethylamino)propanamido)-1-((9Z,12Z)-octadeca-9,12-dienoyl)pyrrolidine-2-carboxylate] | 9.2 | – | – | – | –
18 | CCCCC/C=C\C/C=C\CCCCCCCCOC(=O)[C@@H]1C[C@@H](NC(=O)CCCN(C)C)CN1C(=O)CCCCCCC/C=C\C/C=C\CCCCC [Compound E38, (9Z,12Z)-octadeca-9,12-dien-1-yl (2S,4R)-4-(4-(dimethylamino)butanamido)-1-((9Z,12Z)-octadeca-9,12-dienoyl)pyrrolidine-2-carboxylate] | – | >50 | – | – | –
19 | CCCCC/C=C\C/C=C\CCCCCCCCOC(=O)[C@@H]1C[C@@H](NC(=O)CCC[N+](C)(C)C)CN1C(=O)CCCCCCC/C=C\C/C=C\CCCCC [Compound E39, N,N,N-trimethyl-4-(((3R,5S)-5-((((9Z,12Z)-octadeca-9,12-dien-1-yl)oxy)carbonyl)-1-((9Z,12Z)-octadeca-9,12-dienoyl)pyrrolidin-3-yl)amino)-4-oxobutan-1-aminium] | – | >50 | – | – | –
20 | CCCCC/C=C\C/C=C\CCCCCCCC(=O)OCCN(CCCN(C)C)C(=O)CCCCCCC/C=C\C/C=C\CCCCC [Compound F5, 2-((9Z,12Z)—N-(3-(dimethylamino)propyl)octadeca-9,12-dienamido)ethyl (9Z,12Z)-octadeca-9,12-dienoate] | 9.4 | – | 33 | – | –
21 | CCCCC/C=C\C/C=C\CCCCCCCC(=O)OCCN(CCCCN(C)C)C(=O)CCCCCCC/C=C\C/C=C\CCCCC [Compound F6, 2-((9Z,12Z)—N-(4-(dimethylamino)butyl)octadeca-9,12-dienamido)ethyl (9Z,12Z)-octadeca-9,12-dienoate] | 9.3 | – | – | – | –
